Values joined by “and” are separate entries in the source; they are usually repeats but may differ in a detail not shown here. Identical values can stand only once. “Also recorded” adds a separate entry of the source.
Tests used:
Format in all cases: in vivo, human
[1] = tested on: male patients with untreated, uncomplicated, essential hypertension; assay: 24-hour rhythm analysis of ambulatory blood pressure (peaked and skewed cosine fit)
Description: Statistics. Because not all variables were normally distributed (Shapiro's-Wilk's W Test), non-parametric tests were used as required. Consequently, Altman's crossover analysis methods were applied (Altman, D. G., Crossover trials, Practical statistics for medical research, Vol. 1, Chapman and Hall. London, 1991, pp. 467-471). […] Student's t-tests for independent variables or Mann-Whitney U tests were applied for all dependent variables to test a carryover effect for (1) single treatment periods, and (2) repeated treatment periods. Correlation between a change in sleep quality and a change in sleep blood pressure was tested by linear correlation. The 24-hour rhythm in blood pressure was fitted by standard cyclic regression models: cosine, cosine with second harmonic, skewed cosine, peaked cosine, and skewed and peaked cosine analysis (Batschelet, E., Circular Statistics in Biology, Academic Press, 1981, 371 pp.). Of these, the latter best fitted the data as indicated by the Akaike's Information Criterion (AIC) (de Leeuw, J., introduction to Akaike (1973) Information Theory and an Extension of the Maximum Likelihood Principle. In S. Kotz and N. L. Johnson (Eds.), Breakthroughs in statistics, Vol. 1, Springer-Verlag. London, 1992 pp. 599-609) and was used for subsequent analysis. Two-tailed p values lower than 0.05 were considered to indicate statistical significance. All group data are presented as means±standard deviation (SD) or means including 95% confidence interval (95% CI).
24-Hour rhythm analysis of ambulatory blood pressure. For 24-hour rhythm analysis of ambulatory blood pressure, the peaked and skewed cosine analysis was used. […] The decrease in minimum and mean systolic blood pressure was not significant (−6±15 mm Hg; p=0. 13 and −5±12 mm Hg; p=0. 19).

[2] = tested on: male patients with untreated, uncomplicated, essential hypertension; assay: Actigraphic estimates of sleep quality (Actiwatch)
Experimental: (§1) Measurements. […] Ambulatory blood pressure was measured every half hour for 32 hours, from 8 hours before bedtime until bedtime the next day. In addition, noninvasive finger arterial blood pressure recordings were performed by Finometer (TNO Biomedical Instruments, Amsterdam, The Netherlands) (Bos, W. J., et al., Circulation, 94 (1996) 1870-5), to estimate changes in total peripheral resistance, stroke volume, and cardiac output, as possible explanations for changes in blood pressure. […] During all ambulatory blood pressure recordings, the subjects reported sleep details in a sleep-wake diary and wore an Actiwatch (Cambridge Neurotechnology Ltd, Cambridge, UK), a piezo-electric accelerometer, on the non-dominant wrist to assess motor activity at 1 min intervals for the estimation of sleep quality.
(§2) Data analysis. Sleep blood pressure was defined as the mean blood pressure from the time of falling asleep until the time of awakening, as determined by actigraphy. Awake blood pressure was defined as the mean blood pressure during the remaining portion of the day. Continuous Finometer data were analyzed by Beatscope software (TNO-Biomedical Instruments, Amsterdam, The Netherlands) (Bos, W. J., et al., Circulation, 94 (1996) 1870-5). Periods of 5 min with a stable blood pressure signal were used for both supine and standing periods. To accurately determine the sleeping period and estimate sleep quality, automatic sleep/wake scoring was performed with Actiwatch Sleep Analysis 98 (Cambridge Neurotechnology Ltd, V4.15), with sensitivity set to medium, on the actigraphy data between “bed time” and “get up time” derived from the sleep-wake diaries. Three sleep variables were objectively computed by this analysis. ‘Sleep latency’ was the calculated time between bed time and sleep onset. The time asleep was termed actual sleep time. The percentage of time asleep while in bed was defined as ‘sleep efficiency’.

[3] = tested on: male patients with untreated, uncomplicated, essential hypertension; assay: Finger arterial blood pressure recordings by Finometer; conditions: repeated melatonin; supine resting or standing, daytime
Experimental: as §1, §2

[4] = tested on: male patients with untreated, uncomplicated, essential hypertension; assay: 24-hour ambulatory blood pressure and heart rate, randomized double-blind placebo-controlled crossover trial
Description: Patients. Sixteen male patients with untreated, uncomplicated, essential hypertension were included in the study. Women were excluded to prevent possible interference of the menstrual cycle and oral anticonceptives on cardiovascular and circadian regulation. Patients were considered hypertensive, with a daytime ambulatory blood pressure between 140-179 mm Hg systolic or between 90-109 mm Hg diastolic. Secondary hypertension was excluded by medical history and routine laboratory tests. Five patients had never received antihypertensive medication; in the others antihypertensive treatment was stopped at least three weeks before participation. Their mean (±SD) age was 55±8 (range 36-68) years and mean BMI was 26.8±.1.7 (23.3-29.1) kg/m^2. Mean self reported habitual waking and bedtimes were 06:38 a.m. ±55 minutes and 11:29 p.m. ±26 minutes, respectively. […] Five days before and during ambulatory blood pressure measurements, subjects maintained fixed sleep-wake cycles according to their habitual sleep-wake cycle. All procedures were carried out with adequate understanding and written consent of the subjects and were approved by the Ethics Committee of the Academic Medical Center of the University of Amsterdam.
Study Design. […] On assessment days, patients abstained from heavy physical exercise, daytime napping, alcohol and nicotine consumption and coffee was restricted to two consumptions per day during breakfast or lunch. Meal times were restricted to the following periods: breakfast 1 to 1.5 hours after waking; lunch 11 to 10 hours before bedtime; and dinner 5 to 4 hours before bedtime.
as §1, §2
Statistics. Because not all variables were normally distributed (Shapiro's-Wilk's W Test), non-parametric tests were used as required. Consequently, Altman's crossover analysis methods were applied (Altman, D. G., Crossover trials, Practical statistics for medical research, Vol. 1, Chapman and Hall. London, 1991, pp. 467-471). […]

[5] = 3 weeks melatonin vs 3 weeks placebo
[6] = 3 weeks melatonin vs 3 weeks placebo, not significant
[7] = repeated melatonin vs placebo, no effect
[8] = acute (single) melatonin 2.5 mg vs single placebo
[9] = after 3 weeks melatonin 2.5 mg orally 1 hour before bedtime, mean ± SD
[10] = individual patient 14, relative to placebo level (FIG. 2)

## COc1ccc2[nH]cc(CCNC(C)=O)c2c1 [Melatonin, N-acetyl-5-methoxy-tryptamine]
[1]; [5]
  decrease of calculated mean diastolic blood pressure: 4±6 mm Hg
  decrease of calculated minimum diastolic blood pressure: 5±7 mm Hg
  increase of day-night rhythm amplitude of diastolic blood pressure: 25%
  increase of day-night rhythm amplitude of systolic blood pressure: 15%
[1]; [6]
  change in mean systolic blood pressure: −5±12 mm Hg
  change in minimum systolic blood pressure: −6±15 mm Hg
[1]; repeated melatonin vs placebo
  effect on time of the minimum blood pressure: no effects
[1]; [7]
  change in maximum diastolic blood pressure: −1±5 mm Hg
  change in maximum systolic blood pressure: −2±12 mm Hg
[2]; acute melatonin application
  effect on actual sleep time: no significant effect
  effect on sleep latency: no significant effect
[2]; after repeated melatonin (placebo 33 minutes)
  sleep latency: 22 min
[2]; after repeated melatonin (placebo 5.6 hours)
  actual sleep time: 6.1 h
[3]
  effect on blood pressure (Finometer): no elect
  effect on cardiac output (Finometer): no elect
  effect on heart rate (Finometer): no elect
  effect on stroke volume (Finometer): no elect
  effect on total peripheral resistance (Finometer): no elect
[4]; [6]
  change in awake diastolic blood pressure: −1 mm Hg
  change in awake systolic blood pressure: −5 mm Hg
[4]; [8]
  effect on diastolic blood pressure awake: no effect
  effect on diastolic blood pressure whilst asleep: no effect
  effect on systolic blood pressure awake: no effect
  effect on systolic blood pressure whilst asleep: no effect
[4]; [9]
  Sleeping Period Distolic BP: 82.4 ± 4.0
  Sleeping Period Heart Rate: 61.1 ± 6.5
  Sleeping Period Systolic BP: 130.6 ± 10.0
  Waking Period Distolic BP: 95.4 ± 7.7
  Waking Period Heart Rate: 71.2 ± 7.8
  Waking Period Systolic BP: 147.6 ± 12.3
[4]; [10]
  effect of repeated melatonin on waking diastolic blood pressure, patient 14: −27 mm Hg
  effect of repeated melatonin on waking systolic blood pressure, patient 14: −53 mm Hg
[4]; repeated (3 weeks daily) 2.5 mg melatonin 1 hour before bedtime vs 3 weeks placebo
  reduction of sleep diastolic blood pressure: 4±6 mm Hg and 4 mm Hg
[4]; repeated (3 weeks daily) 2.5 mg melatonin vs placebo
  effect on heart rate: without a change; also recorded: did not affect
[4]; single dose of melatonin 2.5 mg
  effect on blood pressure: no effect

From US20050137247A1, “Methods and compositions for treatment of hypertension” (The Brigham and Women's Hospital, Inc., priority 2003, published 2005)
